Experimental data as given in BindingDB's records for PubMed 7518514 (Abbott Laboratories, 1994).
pKi: −log10 of the molar value.

Tests used:
[1] = biological target: Substance-P receptor (Homo sapiens, UniProt P25103)
[2] = biological target: Adenosine receptor A2a (Homo sapiens, UniProt P29274)
[3] = biological target: Voltage-dependent N-type calcium channel subunit alpha-1B (Rattus norvegicus, UniProt Q02294)
[4] = biological target: Glutamate receptor 3 (Homo sapiens, UniProt P42263)
[5] = biological target: Adenylate cyclase type 9 (Homo sapiens, UniProt O60503)
Adenylate cyclase type 9, sequence (O60503 whole entry): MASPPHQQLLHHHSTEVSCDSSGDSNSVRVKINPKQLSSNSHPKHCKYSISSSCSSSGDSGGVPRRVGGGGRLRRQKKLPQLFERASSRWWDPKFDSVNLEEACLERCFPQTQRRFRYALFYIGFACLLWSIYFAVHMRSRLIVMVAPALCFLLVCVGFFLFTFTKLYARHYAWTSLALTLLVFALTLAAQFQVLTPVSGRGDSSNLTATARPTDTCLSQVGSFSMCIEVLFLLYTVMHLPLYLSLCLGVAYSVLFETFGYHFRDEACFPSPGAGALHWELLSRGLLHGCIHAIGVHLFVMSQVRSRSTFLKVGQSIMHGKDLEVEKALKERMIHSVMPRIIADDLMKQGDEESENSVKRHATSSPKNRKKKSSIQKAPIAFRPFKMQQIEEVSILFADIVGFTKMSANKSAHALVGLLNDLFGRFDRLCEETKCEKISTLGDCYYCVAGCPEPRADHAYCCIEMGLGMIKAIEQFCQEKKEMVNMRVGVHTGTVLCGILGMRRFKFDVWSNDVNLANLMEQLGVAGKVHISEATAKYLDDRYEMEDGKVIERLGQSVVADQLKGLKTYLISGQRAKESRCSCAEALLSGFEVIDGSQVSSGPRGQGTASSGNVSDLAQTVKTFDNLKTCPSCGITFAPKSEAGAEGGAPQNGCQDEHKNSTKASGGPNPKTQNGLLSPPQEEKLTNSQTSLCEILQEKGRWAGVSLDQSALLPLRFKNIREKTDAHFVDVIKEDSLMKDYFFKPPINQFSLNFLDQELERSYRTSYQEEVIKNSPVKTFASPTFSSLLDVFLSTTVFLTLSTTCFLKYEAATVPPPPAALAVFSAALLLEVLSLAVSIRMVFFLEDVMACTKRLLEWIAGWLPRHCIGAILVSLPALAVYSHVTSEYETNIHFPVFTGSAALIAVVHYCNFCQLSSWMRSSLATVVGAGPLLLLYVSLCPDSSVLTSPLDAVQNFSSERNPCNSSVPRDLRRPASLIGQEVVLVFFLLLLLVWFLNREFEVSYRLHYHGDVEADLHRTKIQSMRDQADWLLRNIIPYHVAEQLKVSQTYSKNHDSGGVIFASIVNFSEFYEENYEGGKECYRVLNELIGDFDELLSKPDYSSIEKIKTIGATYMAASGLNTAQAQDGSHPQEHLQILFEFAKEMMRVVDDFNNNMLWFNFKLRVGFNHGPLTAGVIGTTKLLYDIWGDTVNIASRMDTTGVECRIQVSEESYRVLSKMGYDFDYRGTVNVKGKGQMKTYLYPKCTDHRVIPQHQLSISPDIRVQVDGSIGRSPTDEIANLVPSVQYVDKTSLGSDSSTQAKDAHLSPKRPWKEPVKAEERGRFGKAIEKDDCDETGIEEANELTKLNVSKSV

[6] = biological target: GLRA1 protein (Homo sapiens, UniProt Q14C71)
[7] = biological target: Gamma-aminobutyric acid receptor subunit alpha-1 (Homo sapiens, UniProt P14867)
[8] = biological target: Gamma-aminobutyric acid type B receptor subunit 1 (Homo sapiens, UniProt Q9UBS5)
Gamma-aminobutyric acid type B receptor subunit 1, sequence (Q9UBS5 whole entry): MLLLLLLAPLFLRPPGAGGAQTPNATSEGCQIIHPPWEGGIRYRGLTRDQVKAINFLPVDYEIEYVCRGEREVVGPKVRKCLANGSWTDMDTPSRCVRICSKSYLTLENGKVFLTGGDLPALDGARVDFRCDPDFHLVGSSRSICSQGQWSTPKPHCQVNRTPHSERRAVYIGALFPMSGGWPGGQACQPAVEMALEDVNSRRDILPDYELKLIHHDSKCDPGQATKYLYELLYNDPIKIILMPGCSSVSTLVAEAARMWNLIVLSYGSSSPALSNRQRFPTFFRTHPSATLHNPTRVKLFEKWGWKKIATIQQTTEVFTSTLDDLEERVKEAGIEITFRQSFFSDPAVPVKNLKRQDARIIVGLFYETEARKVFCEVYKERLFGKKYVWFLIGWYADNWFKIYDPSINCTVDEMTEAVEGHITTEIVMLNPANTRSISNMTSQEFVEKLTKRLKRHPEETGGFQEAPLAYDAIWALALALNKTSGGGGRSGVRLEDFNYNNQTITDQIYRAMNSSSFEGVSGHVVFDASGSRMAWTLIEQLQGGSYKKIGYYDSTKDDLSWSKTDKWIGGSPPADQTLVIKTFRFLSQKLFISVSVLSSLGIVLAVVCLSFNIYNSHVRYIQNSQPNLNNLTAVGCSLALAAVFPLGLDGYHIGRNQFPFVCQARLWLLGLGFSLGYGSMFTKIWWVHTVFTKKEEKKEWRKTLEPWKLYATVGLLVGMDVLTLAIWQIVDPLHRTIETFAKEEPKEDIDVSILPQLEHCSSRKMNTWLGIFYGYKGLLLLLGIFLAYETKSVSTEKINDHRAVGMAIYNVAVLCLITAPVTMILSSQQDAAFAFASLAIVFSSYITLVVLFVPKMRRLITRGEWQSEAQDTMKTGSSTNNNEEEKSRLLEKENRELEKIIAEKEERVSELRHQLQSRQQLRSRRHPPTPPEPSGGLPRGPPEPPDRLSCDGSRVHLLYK

[9] = biological target: Solute carrier family 22 member 1 (Rattus norvegicus, UniProt Q63089)
[10] = biological target: Inositol-tetrakisphosphate 1-kinase (Homo sapiens, UniProt Q13572)
Inositol-tetrakisphosphate 1-kinase, sequence (Q13572 whole entry): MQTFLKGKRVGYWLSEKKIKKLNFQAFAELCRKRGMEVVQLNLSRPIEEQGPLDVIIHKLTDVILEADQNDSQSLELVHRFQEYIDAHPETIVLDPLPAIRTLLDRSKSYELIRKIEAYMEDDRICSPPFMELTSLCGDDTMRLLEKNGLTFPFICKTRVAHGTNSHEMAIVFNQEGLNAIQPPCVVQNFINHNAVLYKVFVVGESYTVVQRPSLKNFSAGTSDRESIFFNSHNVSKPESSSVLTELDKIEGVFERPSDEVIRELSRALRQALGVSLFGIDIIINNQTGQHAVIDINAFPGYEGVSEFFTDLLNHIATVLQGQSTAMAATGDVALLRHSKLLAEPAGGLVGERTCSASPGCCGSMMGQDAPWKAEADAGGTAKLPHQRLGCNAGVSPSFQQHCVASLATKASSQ

[11] = biological target: Sodium-dependent noradrenaline transporter (Homo sapiens, UniProt P23975)
[12] = biological target: Apamin (Apis mellifera, UniProt P01500)
[13] = biological target: Outer capsid protein sigma-1 (Reovirus type 3 (strain Dearing), UniProt P03528)
Outer capsid protein sigma-1, sequence (P03528 whole entry): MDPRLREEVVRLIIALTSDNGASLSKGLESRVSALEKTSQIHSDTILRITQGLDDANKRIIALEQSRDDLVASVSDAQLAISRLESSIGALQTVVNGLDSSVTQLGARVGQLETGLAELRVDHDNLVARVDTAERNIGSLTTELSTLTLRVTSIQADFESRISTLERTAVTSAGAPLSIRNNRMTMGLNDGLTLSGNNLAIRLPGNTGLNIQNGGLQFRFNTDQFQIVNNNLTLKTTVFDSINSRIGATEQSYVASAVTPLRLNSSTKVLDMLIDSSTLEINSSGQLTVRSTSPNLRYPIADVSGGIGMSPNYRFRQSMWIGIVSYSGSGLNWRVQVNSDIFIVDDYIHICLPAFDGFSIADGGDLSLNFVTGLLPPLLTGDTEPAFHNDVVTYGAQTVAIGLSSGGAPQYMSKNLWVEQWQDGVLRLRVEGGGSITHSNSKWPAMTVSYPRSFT

[14] = biological target: 5-hydroxytryptamine receptor 3A (Homo sapiens, UniProt P46098)
5-hydroxytryptamine receptor 3A, sequence (P46098 whole entry): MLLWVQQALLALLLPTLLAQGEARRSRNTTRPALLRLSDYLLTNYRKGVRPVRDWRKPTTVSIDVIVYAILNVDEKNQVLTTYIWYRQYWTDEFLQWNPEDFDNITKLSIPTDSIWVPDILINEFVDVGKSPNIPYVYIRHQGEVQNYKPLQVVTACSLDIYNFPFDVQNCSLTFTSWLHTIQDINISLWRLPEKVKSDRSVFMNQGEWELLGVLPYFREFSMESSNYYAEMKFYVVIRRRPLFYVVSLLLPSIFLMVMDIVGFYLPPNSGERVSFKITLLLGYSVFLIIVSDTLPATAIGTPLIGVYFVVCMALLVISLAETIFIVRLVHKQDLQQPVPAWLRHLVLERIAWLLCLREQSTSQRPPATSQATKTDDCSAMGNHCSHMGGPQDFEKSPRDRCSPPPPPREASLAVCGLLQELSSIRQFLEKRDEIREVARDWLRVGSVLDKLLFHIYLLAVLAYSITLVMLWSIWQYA

[15] = biological target: Muscarinic acetylcholine receptor M1 (Mus musculus, UniProt P12657)
[16] = biological target: 5-hydroxytryptamine receptor 2A (Sus scrofa, UniProt P50129)
[17] = biological target: Histamine H1 receptor (Homo sapiens, UniProt P35367)
[18] = biological target: Substance-K receptor (Bos taurus, UniProt P05363)
[19] = biological target: Adenosine receptor A1 (Homo sapiens, UniProt P30542)
[20] = biological target: Chloride channel protein 1 (Homo sapiens, UniProt P35523)
[21] = biological target: Sodium-dependent dopamine transporter (Homo sapiens, UniProt Q01959)
[22] = biological target: Beta-nerve growth factor (Homo sapiens, UniProt P01138)
[23] = biological target: Adrenergic alpha2 receptor (Mesocricetus auratus, UniProt Q60533)
[24] = biological target: 5-hydroxytryptamine receptor 1A/1B/1D/2C (Homo sapiens, UniProt P08908+P28221+P28222+P28335)
[25] = biological target: Type-2 angiotensin II receptor (Homo sapiens, UniProt P50052)
[26] = biological target: Voltage-dependent T-type calcium channel subunit alpha-1H (Homo sapiens, UniProt O95180)
[27] = biological target: Glutamate receptor ionotropic, kainate 2 (Homo sapiens, UniProt Q13002)
[28] = biological target: D(2) dopamine receptor (Homo sapiens, UniProt P14416)
D(2) dopamine receptor, sequence (P14416 whole entry): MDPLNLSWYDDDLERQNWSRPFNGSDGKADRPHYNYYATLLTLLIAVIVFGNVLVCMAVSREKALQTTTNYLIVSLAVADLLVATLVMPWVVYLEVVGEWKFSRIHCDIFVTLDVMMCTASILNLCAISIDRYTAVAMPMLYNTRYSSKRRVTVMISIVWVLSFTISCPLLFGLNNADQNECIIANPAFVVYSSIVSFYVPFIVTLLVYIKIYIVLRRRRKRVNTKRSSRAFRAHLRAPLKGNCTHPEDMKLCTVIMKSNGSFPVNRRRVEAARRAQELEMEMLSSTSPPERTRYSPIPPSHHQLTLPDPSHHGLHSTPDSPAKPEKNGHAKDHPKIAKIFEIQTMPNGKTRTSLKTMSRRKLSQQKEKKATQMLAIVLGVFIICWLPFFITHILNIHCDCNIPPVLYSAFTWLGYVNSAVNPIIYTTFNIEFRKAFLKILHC

[29] = biological target: Glutamate receptor ionotropic, NMDA 1 (Rattus norvegicus, UniProt P35439)
[30] = biological target: Protein kinase C (Drosophila melanogaster, UniProt P13678)
[31] = biological target: Beta-2 adrenergic receptor (Mus musculus, UniProt P18762)
[32] = biological target: D(1A) dopamine receptor (Homo sapiens, UniProt P21728)
D(1A) dopamine receptor, sequence (P21728 whole entry): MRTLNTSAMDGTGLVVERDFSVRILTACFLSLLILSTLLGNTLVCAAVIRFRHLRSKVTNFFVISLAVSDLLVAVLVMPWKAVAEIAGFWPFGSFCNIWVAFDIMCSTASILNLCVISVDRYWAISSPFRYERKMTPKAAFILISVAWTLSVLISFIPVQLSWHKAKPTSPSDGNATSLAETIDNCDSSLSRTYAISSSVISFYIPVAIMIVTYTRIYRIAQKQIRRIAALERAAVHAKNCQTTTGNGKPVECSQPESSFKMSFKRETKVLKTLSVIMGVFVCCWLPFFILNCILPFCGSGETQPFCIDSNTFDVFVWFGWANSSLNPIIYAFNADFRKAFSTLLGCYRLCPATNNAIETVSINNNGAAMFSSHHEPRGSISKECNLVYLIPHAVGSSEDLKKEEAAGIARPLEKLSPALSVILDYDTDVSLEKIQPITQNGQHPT

[33] = biological target: VIP peptides (Homo sapiens, UniProt P01282)
VIP peptides, sequence (P01282 125-152 limits assumed): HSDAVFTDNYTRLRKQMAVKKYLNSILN

Measured: pKi

Substance-P receptor, sequence (P25103 whole entry): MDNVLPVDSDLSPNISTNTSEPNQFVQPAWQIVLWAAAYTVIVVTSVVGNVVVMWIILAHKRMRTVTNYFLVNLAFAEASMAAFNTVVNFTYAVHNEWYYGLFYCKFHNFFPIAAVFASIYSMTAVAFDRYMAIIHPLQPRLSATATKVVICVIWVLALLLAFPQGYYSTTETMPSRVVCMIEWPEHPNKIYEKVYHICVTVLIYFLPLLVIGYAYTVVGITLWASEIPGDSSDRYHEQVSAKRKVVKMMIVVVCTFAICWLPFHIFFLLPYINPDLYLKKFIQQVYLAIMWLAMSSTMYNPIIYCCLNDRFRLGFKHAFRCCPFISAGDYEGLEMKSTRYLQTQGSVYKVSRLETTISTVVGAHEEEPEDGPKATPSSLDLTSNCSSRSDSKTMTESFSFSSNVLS

Cc1cc([C@@H]2CCCN2C)on1 [ABT-418]
< 5.00: all assays above
